`*CCOC(=O)c1ccc(O*)cc1` (repeat unit) showed a glass transition temperature of 84.00 °C.
Under `*CCOCCOCCOCCOC(=O)c1ccc(-c2ccc(-c3ccc(C(=O)O*)cc3)cc2)cc1` (repeat unit) stands 40.00 °C; under `*CCOCCOCCOCCOCCOCCOC(=O)c1cccc(C(=O)O*)c1` (repeat unit), -23.50 °C.
In turn, `*CCOCCOCCOCCOCCOCCOCCOCCOCCOCCOC(=O)c1ccc(-c2ccc(-c3ccc(C(=O)O*)cc3)cc2)cc1` (repeat unit) gave a glass transition temperature of 40.00 °C.
Molecule `*CCOCCOc1ccc(N/C=N/c2ccc(O*)cc2)cc1` (repeat unit) yielded a glass transition temperature of 62.00 °C.
Under `*CCOc1ccc(/C=C2\CC/C(=C\c3ccc(OCCOP(=O)(O*)OCC)c(OC)c3)C2=O)cc1OC` (repeat unit) stands 80.00 °C; under `*CCOc1ccc(C2(c3ccc(OCCO[Si](O*)(c4ccccc4)c4ccccc4)cc3)c3ccccc3-c3ccccc32)cc1` (repeat unit), 97.00 °C.
The figure for `*CCOc1ccc(S(=O)(=O)c2ccc(OCCOP(=O)(O*)Oc3ccc(C)cc3)cc2)cc1` (repeat unit) is 46.00 °C.
Under `*CCOc1ccc(S(=O)(=O)c2ccc(OCCOP(=O)(O*)Oc3ccccc3)cc2)cc1` (repeat unit) stands 49.00 °C; under `*Cc1ccc(COC(=O)c2cccc(C(=O)O*)c2)cc1` (repeat unit), 143.00 °C; under `*O[SiH](*)C` (repeat unit), -3.39 °C.
In turn, `*O[Si](*)(C)C1CC2CC1C1C3CC(CC3C(=O)OC(C)(C)C)C21` (repeat unit) gave a glass transition temperature of 90.00 °C.
As to `*O[Si](*)(C)C1CC2CC1CC2OC(=O)OC(C)(C)C` (repeat unit), the glass transition temperature came to 60.00 °C.
With `*O[Si](*)(C)C=C` (repeat unit), the glass transition temperature was -129.00 °C.
The figure for `*O[Si](*)(C)CCCC(=O)OCC` (repeat unit) is -82.00 °C.
Under `*O[Si](*)(C)CCCC(=O)OCCCC` (repeat unit) stands -91.00 °C; under `*O[Si](*)(C)CCCC(=O)OCCO` (repeat unit), -58.00 °C; under `*O[Si](*)(C)CCCCCCCC` (repeat unit), -92.00 °C.
Turning to `*O[Si](*)(C)CCCCCCCCCCC(=O)OCCC(F)(F)C(F)(F)C(F)(F)C(F)(F)C(F)(F)C(F)(F)C(F)(F)C(F)(F)F` (repeat unit), the glass transition temperature is -78.00 °C.
Under `*O[Si](*)(C)CCCCCCCCCCC(=O)Oc1ccc(-c2ccc(OC(=O)CCCCC(=O)OC3CC(C)CCC3C(C)C)cc2)cc1` (repeat unit) stands 16.50 °C; under `*O[Si](*)(C)CCCCCCCCCCC(=O)Oc1ccc(C(=O)Oc2ccc(-c3ccc(OCC(C)CC)cc3)cc2)cc1` (repeat unit), 26.70 °C.
The figure for `*O[Si](*)(C)CCCCCCCCCCC(=O)Oc1ccc(C(=O)Oc2ccc(OC(=O)CCCCC(=O)OC3CC(C)CCC3C(C)C)cc2)cc1` (repeat unit) is 20.70 °C; for `*O[Si](*)(C)CCCCCCCCCCC(=O)Oc1ccc(C(=O)Oc2ccc(OC(=O)c3ccc(OCC(C)CC)cc3)cc2)cc1` (repeat unit) it is 28.50 °C; for `*O[Si](*)(C)CCCCCCCCCCC(=O)Oc1ccc2cc(C(=O)OC3CCC4(C)C(=CCC5C4CCC4(C)C(C(C)CCCC(C)C)CCC54)C3)ccc2c1` (repeat unit) it is 27.00 °C.
The figure for `*O[Si](*)(C)CCCCCCCCCCCOc1ccc(-c2ccc(C(=O)Oc3ccc(C(=O)OC(C)C(=O)OC(C)C(=O)OC(C)C(=O)OCC(C)CC)cc3)cc2)cc1` (repeat unit) is 15.00 °C; for `*O[Si](*)(C)CCCCCCCCCCCOc1ccc(/C=C/c2ccc(OCCCC)cc2)cc1` (repeat unit) it is -33.00 °C; for `*O[Si](*)(C)CCCCCCCCCCCn1c2ccccc2c2ccccc21` (repeat unit) it is -45.00 °C.
On to `*O[Si](*)(C)CCCCCCCCOc1ccc(C(=O)Oc2ccc(C#N)cc2C)cc1` (repeat unit), for which the glass transition temperature worked out at 5.50 °C.
With `*O[Si](*)(C)CCCCCCOC(=O)c1cc(OC(=O)c2ccc(OCCOCCOCCOCCOCCOCCOC)cc2)ccc1OC(=O)c1ccc(OCCOCCOCCOCCOCCOCCOC)cc1` (repeat unit), the glass transition temperature was -50.00 °C.
Under `*O[Si](*)(C)CCCCCCOc1ccc(C(=O)Oc2ccc(C#N)cc2C)cc1` (repeat unit) stands 45.00 °C; under `*O[Si](*)(C)CCCCCCOc1ccc(C(=O)Oc2ccc(OC)cc2)cc1` (repeat unit), -2.00 °C; under `*O[Si](*)(C)CCCCCCn1c2ccccc2c2ccccc21` (repeat unit), -5.00 °C.
The figure for `*O[Si](*)(C)CCCCOc1ccc(-c2ccc(C#N)cc2)cc1` (repeat unit) is 22.50 °C; for `*O[Si](*)(C)CCCOC(=O)c1cc(OC(=O)c2ccc(OCCOCCOCCOCCOC)cc2)ccc1OC(=O)c1ccc(OCCOCCOCCOCCOC)cc1` (repeat unit) it is -37.00 °C; for `*O[Si](*)(C)CCCOc1ccc(/N=N/c2ccc(S(=O)(=O)O)cc2)cc1` (repeat unit) it is 9.20 °C.
The figure for `*O[Si](*)(C)CCCOc1ccc(C(=O)OC2CCC3(C)C(=CCC4C3CCC3(C)C(C(C)CCCC(C)C)CCC43)C2)cc1` (repeat unit) is 61.10 °C; for `*O[Si](*)(C)CCCOc1ccc(C(=O)OC2CCC3(C)C(=CCC4C3CCC3(C)C(C(C)CCCC(C)C)CCC43)C2)cc1S(=O)(=O)[O][K]` (repeat unit) it is 112.60 °C.
As for `*O[Si](*)(C)CCCOc1ccc(C(=O)Oc2ccc(-c3ccc(OC(=O)CCCCC(=O)OC4CC(C)CCC4C(C)C)cc3)cc2)cc1` (repeat unit), the glass transition temperature came out at 56.80 °C.
The figure for `*O[Si](*)(C)CCCOc1ccc(C(=O)Oc2ccc(-c3ccc(OC(=O)c4ccc(OCC)cc4)cc3)cc2)cc1` (repeat unit) is 74.60 °C; for `*O[Si](*)(C)CCCOc1ccc(N(c2ccc(C)cc2)c2ccc(-c3ccc(N(c4ccccc4)c4ccc(C)cc4)cc3)cc2)cc1` (repeat unit) it is 102.00 °C; for `*O[Si](*)(C)CCCn1c2ccccc2c2ccccc21` (repeat unit) it is 55.5 °C.
Take `*O[Si](*)(C)CCc1cc(C(=O)Oc2ccc(OCCCC)cc2)ccc1-c1ccc(C(=O)Oc2ccc(OCCCC)cc2)cc1` (repeat unit): the glass transition temperature worked out at 96.00 °C.
The figure for `*O[Si](*)(C)CCc1cc(C(=O)Oc2ccc(OCCCC)cc2)ccc1C(=O)Oc1ccc(OCCCC)cc1` (repeat unit) is 92.00 °C.
Under `*O[Si](*)(C)OCCCCCCCCCCCOc1ccc(C2COC(c3ccc(OC)cc3)OC2)cc1` (repeat unit) stands 44.00 °C.
Under `*O[Si](C)(C)O[Si](*)(C)CCCCOc1ccc(-c2ccc(C#N)cc2)cc1` (repeat unit) stands -5.50 °C.
Take `*O[Si](C)(C)O[Si](C)(C)O[SiH](*)O[Si](C)(C)C=C` (repeat unit): the glass transition temperature was -68.00 °C.
Under `*O[Si](C)(C)O[Si](C)(C)O[Si](C)(C)O[Si](C)(C)O[Si](C)(C)c1ccc(Oc2ccc([Si](*)(C)C)cc2)cc1` (repeat unit) stands -65.00 °C.
The figure for `*O[Si](C)(C)O[Si](C)(C)O[Si](C)(C)O[Si](C)(C)c1ccc([Si](*)(C)C)cc1` (repeat unit) is -72.00 °C; for `*O[Si](C)(C)O[Si](C)(C)O[Si](C)(C)O[Si](C)(c1ccccc1)c1cccc([Si](*)(C)c2ccccc2)c1` (repeat unit) it is -42.00 °C; for `*O[Si](C)(C)O[Si](C)(C)O[Si](C)(C)c1ccc(Oc2ccc([Si](*)(C)C)cc2)cc1` (repeat unit) it is -37.00 °C.
The figure for `*O[Si](C)(C)O[Si](C)(C)O[Si](C)(C)c1ccc([Si](*)(C)C)cc1` (repeat unit) is -62.00 °C; for `*O[Si](C)(C)c1cc(OCCO)c([Si](*)(C)C)cc1OCCO` (repeat unit) it is 73.00 °C; for `*O[Si](C)(C)c1ccc([Si](C)(C)O[SiH](*)CCC(F)(F)F)cc1` (repeat unit) it is -37.00 °C.
For `*O[Si](C)(C)c1ccc2cc([Si](*)(C)C)ccc2c1` (repeat unit), the glass transition temperature was found to be 29.00 °C.
In the case of `*O[Si](C)(C)c1ccc2cc3cc([Si](*)(C)C)ccc3cc2c1` (repeat unit), the glass transition temperature came to 118.00 °C.
Under `*O[Si](C)(C)c1ccc2ccc3c([Si](*)(C)C)ccc4ccc1c2c43` (repeat unit) stands 65.00 °C; under `*O[Si](C)(C)c1cccc(C(F)(F)C(F)(F)C(F)(F)c2cccc([Si](*)(C)C)c2)c1` (repeat unit), -8.00 °C.
The molecule `*O[Si](C)(C)c1cccc([Si](*)(C)C)c1` (repeat unit) yielded a glass transition temperature of -48.00 °C.
In turn, `*O[Si](O[Si](C)(C)c1ccc([Si](*)(C)C)cc1)(c1ccccc1)c1ccccc1` (repeat unit) showed a glass transition temperature of 0.00 °C.
Under `*Oc1ccc(/C=N/N=C/c2ccc(Oc3ccc(C(=O)c4ccc(*)cc4)cc3)cc2)cc1` (repeat unit) stands 179.00 °C.
The figure for `*Oc1ccc(C(=O)c2ccc(Oc3ccc(C(=O)c4c(C(=O)c5ccc(*)cc5)c(-c5ccccc5)c(-c5ccc6ccccc6c5)c(-c5ccc6ccccc6c5)c4-c4ccccc4)cc3)cc2)cc1` (repeat unit) is 290.00 °C; for `*Oc1ccc(C(=O)c2ccc(Oc3ccc(C(c4ccc(*)cc4)(C(F)(F)F)C(F)(F)F)cc3)cc2)c2ccccc12` (repeat unit) it is 190.00 °C.
The figure for `*Oc1ccc(C(c2ccc(Oc3ccc(C(=O)c4ccc(*)cc4)cc3)cc2)(C(F)(F)F)C(F)(F)F)cc1` (repeat unit) is 175.00 °C.

Source of the values: the PolyMetriX glass transition set.
